Measurements from patent US20260262643A1, “HERBICIDAL BENZOXAZINES” (FMC CORPORATION, priority 2022, published 2026).

Key:
barnyardgrass [1] = experiment: Test A postemergence; format: in vivo, Echinochloa crusgalli; conditions: postemergence, 10 days
Outline: (§1)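 Loam/sand soil; pre-em directed soil spray at planting, post-em spray at 1–2 leaf (2–10 cm). Compound in non-phytotoxic solvent + surfactant. Greenhouse 10 d; visual injury vs untreated, 0 = no effect, 100 = complete control.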

barnyardgrass [2] = experiment: Test A preemergence; format: in vivo, Echinochloa crusgalli; conditions: visual injury after 10 days, 0 to 100 scale, 0 is no effect, 100 is complete control
Outline: as §1

oat, wild [3] = experiment: Test A preemergence; format: in vivo, Avena fatua; conditions: 0 to 100 scale
Outline: as §1

ragweed [4] = experiment: Test A postemergence; format: in vivo, Ambrosia artemisiifolia; conditions: postemergence, 10 days
Outline: as §1

ryegrass, Italian [5] = experiment: Test A preemergence; format: in vivo, Lolium multiflorum; conditions: 0 to 100 scale
Outline: as §1

wheat [6] = experiment: Test A preemergence; format: in vivo, Triticum aestivum; conditions: 0 to 100 scale
Outline: as §1

sedge, umbrella = experiment: Test B flooded paddy test; format: in vivo, Cyperus difformis; conditions: 250 g ai/ha, Flood, 13 days, 0 to 100 scale (0 no effect, 100 complete control)
Outline: (§2)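 Percent weed or crop control, judged by eye on a 0–100 scale 13 days post-treatment, reflects compound added to a 3 cm flood maintained over 2-leaf plants in the greenhouse. Missing entries are marked with a dash.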

soybean [7] = experiment: Test A postemergence; format: in vivo, Glycine max; conditions: postemergence, 10 days
Outline: as §1

galium = experiment: Test A postemergence; format: in vivo, Galium aparine; conditions: postemergence, 10 days
Outline: as §1

blackgrass [8] = experiment: Test A postemergence; format: in vivo, Alopecurus myosuroides; conditions: postemergence, 10 days
Outline: as §1

ragweed [9] = experiment: Test A preemergence; format: in vivo, Ambrosia artemisiifolia; conditions: 0 to 100 scale
Outline: as §1

soybean [10] = experiment: Test A preemergence; format: in vivo, Glycine max; conditions: 0 to 100 scale
Outline: as §1

wheat [11] = experiment: Test A postemergence; format: in vivo, Triticum aestivum; conditions: postemergence, 10 days
Outline: as §1

horseweed = experiment: Test A postemergence; format: in vivo, Erigeron canadensis; conditions: postemergence, 10 days
Outline: as §1

blackgrass [12] = experiment: Test A preemergence; format: in vivo, Alopecurus myosuroides; conditions: 0 to 100 scale
Outline: as §1

corn [13] = experiment: Test A preemergence; format: in vivo, Zea mays; conditions: 0 to 100 scale
Outline: as §1

pigweed, palmer [14] = experiment: Test A preemergence; format: in vivo, Amaranthus palmeri; conditions: 0 to 100 scale
Outline: as §1

barnyardgrass [15] = experiment: Test B flooded paddy test; format: in vivo, Echinochloa crus-galli; conditions: 250 g ai/ha, Flood, 13 days, 0 to 100 scale (0 no effect, 100 complete control)
Outline: as §2

kochia [16] = experiment: Test A postemergence; format: in vivo, Bassia scoparia; conditions: postemergence, 10 days
Outline: as §1

oat, wild [17] = experiment: Test A postemergence; format: in vivo, Avena fatua; conditions: postemergence, 10 days
Outline: as §1

ryegrass, Italian [18] = experiment: Test A postemergence; format: in vivo, Lolium multiflorum; conditions: postemergence, 10 days
Outline: as §1

rice = experiment: Test B flooded paddy test; format: in vivo, Oryza sativa; conditions: 250 g ai/ha, Flood, 13 days, 0 to 100 scale (0 no effect, 100 complete control)
Outline: as §2

foxtail, giant [19] = experiment: Test A postemergence; format: in vivo, Setaria faberi; conditions: postemergence, 10 days
Outline: as §1

pigweed, palmer [20] = experiment: Test A postemergence; format: in vivo, Amaranthus palmeri; conditions: postemergence, 10 days
Outline: as §1

corn [21] = experiment: Test A postemergence; format: in vivo, Zea mays; conditions: postemergence, 10 days
Outline: as §1

kochia [22] = experiment: Test A preemergence; format: in vivo, Bassia scoparia; conditions: 0 to 100 scale
Outline: as §1

foxtail, giant [23] = experiment: Test A preemergence; format: in vivo, Setaria faberi; conditions: 0 to 100 scale
Outline: as §1

ducksalad = experiment: Test B flooded paddy test; format: in vivo, Heteranthera limosa; conditions: 250 g ai/ha, Flood, 13 days, 0 to 100 scale (0 no effect, 100 complete control)
Outline: as §2

[24] = 125 g ai/ha, 0 to 100 scale, 0 no effect, 100 complete control
[25] = 500 g ai/ha, visual injury, 0 to 100 scale (0 no effect, 100 complete control)
[26] = 500 g ai/ha, visual injury after 10 days, 0 is no effect, 100 is complete control

Question: `CC(C)c1ncn(-c2ccc(C#N)c(C(=O)N3C[C@H](C)Oc4c(Cl)cccc43)c2)n1` [Compound 140] was tested. Which “Barnyardgrass plant response rating” value (barnyardgrass [1]; [24]) did it give?
Answer: 50

Question: And the “Plant response rating, Barnyardgrass” value (barnyardgrass [1]; [25])?
Answer: 70

Question: And the “Plant response rating, Barnyardgrass” value (barnyardgrass [2]; 125 g ai/ha)?
Answer: 90

Question: What about the “Plant response rating, Barnyardgrass” value (barnyardgrass [2]; 500 g ai/ha) of the same compound?
Answer: 90

Question: What about the “Plant response rating, Oat, Wild” value (oat, wild [3]; 125 g ai/ha) of the same compound?
Answer: 30

Question: And the “Plant response rating, Oat, Wild” value (oat, wild [3]; [26])?
Answer: 70

Question: What about the “Ragweed plant response rating” value (ragweed [4]; [24]) of the same compound?
Answer: 20

Question: What about the “Plant response rating, Ragweed” value (ragweed [4]; [25]) of the same compound?
Answer: 40

Question: What about the “Plant response rating, Ryegrass, Italian” value (ryegrass, Italian [5]; 125 g ai/ha) of the same compound?
Answer: 50

Question: What about the “Plant response rating, Ryegrass, Italian” value (ryegrass, Italian [5]; [26]) of the same compound?
Answer: 70

Question: What about the “Plant response rating, Wheat” value (wheat [6]; 125 g ai/ha) of the same compound?
Answer: 20

Question: What about the “Plant response rating, Wheat” value (wheat [6]; [26]) of the same compound?
Answer: 50

Question: What about the “Plant response rating, Sedge, Umbrella” value (sedge, umbrella) of the same compound?
Answer: 75

Question: And the “Soybean plant response rating” value (soybean [7]; [24])?
Answer: 100

Question: And the “Plant response rating, Soybean” value (soybean [7]; [25])?
Answer: 100

Question: What about the “Galium plant response rating” value (galium; [24]) of the same compound?
Answer: 70

Question: And the “Plant response rating, Galium” value (galium; [25])?
Answer: 70

Question: What about the “Blackgrass plant response rating” value (blackgrass [8]; [24]) of the same compound?
Answer: 70

Question: What about the “Plant response rating, Blackgrass” value (blackgrass [8]; [25]) of the same compound?
Answer: 80

Question: And the “Plant response rating, Ragweed” value (ragweed [9]; 125 g ai/ha)?
Answer: 0

Question: What about the “Plant response rating, Ragweed” value (ragweed [9]; [26]) of the same compound?
Answer: 30

Question: And the “Plant response rating, Soybean” value (soybean [10]; 125 g ai/ha)?
Answer: 50

Question: And the “Plant response rating, Soybean” value (soybean [10]; [26])?
Answer: 100

Question: What about the “Wheat plant response rating” value (wheat [11]; [24]) of the same compound?
Answer: 30

Question: What about the “Plant response rating, Wheat” value (wheat [11]; [25]) of the same compound?
Answer: 60

Question: And the “Horseweed plant response rating” value (horseweed; [24])?
Answer: 0

Question: What about the “Plant response rating, Horseweed” value (horseweed; [25]) of the same compound?
Answer: 0

Question: What about the “Plant response rating, Blackgrass” value (blackgrass [12]; 125 g ai/ha) of the same compound?
Answer: 40

Question: And the “Plant response rating, Blackgrass” value (blackgrass [12]; [26])?
Answer: 70

Question: And the “Plant response rating, Corn” value (corn [13]; 125 g ai/ha)?
Answer: 0

Question: What about the “Plant response rating, Corn” value (corn [13]; [26]) of the same compound?
Answer: 10

Question: What about the “Plant response rating, Pigweed, Palmer” value (pigweed, palmer [14]; 125 g ai/ha) of the same compound?
Answer: 100

Question: What about the “Plant response rating, Pigweed, Palmer” value (pigweed, palmer [14]; [26]) of the same compound?
Answer: 100

Question: What about the “Plant response rating, Barnyardgrass” value (barnyardgrass [15]) of the same compound?
Answer: 20

Question: And the “Kochia plant response rating” value (kochia [16]; [24])?
Answer: 90

Question: And the “Plant response rating, Kochia” value (kochia [16]; [25])?
Answer: 90

Question: What about the “Oat, Wild plant response rating” value (oat, wild [17]; [24]) of the same compound?
Answer: 0

Question: And the “Plant response rating, Oat, Wild” value (oat, wild [17]; [25])?
Answer: 50

Question: What about the “Ryegrass, Italian plant response rating” value (ryegrass, Italian [18]; [24]) of the same compound?
Answer: 40

Question: And the “Plant response rating, Ryegrass, Italian” value (ryegrass, Italian [18]; [25])?
Answer: 50

Question: And the “Plant response rating, Rice” value (rice)?
Answer: 0

Question: And the “Foxtail, Giant plant response rating” value (foxtail, giant [19]; [24])?
Answer: 90

Question: What about the “Plant response rating, Foxtail, Giant” value (foxtail, giant [19]; [25]) of the same compound?
Answer: 90

Question: And the “Pigweed, Palmer plant response rating” value (pigweed, palmer [20]; [24])?
Answer: 70

Question: And the “Plant response rating, Pigweed, Palmer” value (pigweed, palmer [20]; [25])?
Answer: 90

Question: And the “Corn plant response rating” value (corn [21]; [24])?
Answer: 70

Question: And the “Plant response rating, Corn” value (corn [21]; [25])?
Answer: 90

Question: And the “Plant response rating, Kochia” value (kochia [22]; 125 g ai/ha)?
Answer: 80

Question: And the “Plant response rating, Kochia” value (kochia [22]; [26])?
Answer: 90

Question: And the “Plant response rating, Foxtail, Giant” value (foxtail, giant [23]; 125 g ai/ha)?
Answer: 90

Question: And the “Plant response rating, Foxtail, Giant” value (foxtail, giant [23]; [26])?
Answer: 100

Question: What about the “Plant response rating, Ducksalad” value (ducksalad) of the same compound?
Answer: 40
